For 18 compounds, IC50 and inhibition results are on record in ChEMBL document CHEMBL1145342, “Structure-based drug design and structural biology study of novel nonpeptide inhibitors of severe acute respiratory syndrome coronavirus main protease” (J Med Chem, 2006).

Structures are written as SMILES.

Assay [1] deals with Replicase polyprotein 1a (Severe acute respiratory syndrome-related coronavirus, UniProt P0C6U8). The assay is described as follows: Inhibition of SARS coronavirus main protease.
The target in assay [2] is Replicase polyprotein 1a (Severe acute respiratory syndrome-related coronavirus) (UniProt P0C6U8). The assay is described as follows: Inhibition of SARS coronavirus main protease at 10 uM.

In the case of `CCOC(=O)C(=CNc1ccc(S(=O)(=O)c2ccc(/N=C/C(C(=O)OCC)=C(\O)OCC)cc2)cc1)C(=O)OCC`, in assay [1], 32 µM corresponded to half-maximal inhibition (IC50). Same read-out and setting: next, `CC1(C)CC(=O)c2c(NCc3ccco3)sc(C#N)c2C1`: 16 µM; `O=[N+]([O-])c1ccc(S(=O)(=O)c2ccc([N+](=O)[O-])cc2)cc1`: 25 µM; `CSc1[nH]nc(NC(=O)c2cccs2)c1S(=O)(=O)c1ccccc1`: 15 µM.

For `Nc1ncc(S(=O)(=O)c2ccc(Cl)cc2)c(N)n1`, the IC50 (as a rule, the point on the concentration scale where inhibition reaches its midpoint) in assay [1] is 6 µM.

In turn, `CCOC(=O)/C(C#N)=C/Nc1ccc(S(=O)(=O)c2ccc(/N=C/C(C#N)=C(\O)OCC)cc2)cc1` showed an IC50 in assay [1] of 16 µM. In the case of `CC(=O)c1ccccc1S(=O)(=O)c1ccccc1C(=O)O`, in assay [1], the IC50 was determined as 16 µM. On the same count and under the same terms, next, `O=C(Oc1ccc(S(=O)(=O)c2ccc(OC(=O)C(Cl)=C(Cl)Cl)cc2)cc1)C(Cl)=C(Cl)Cl`: 0.9 µM.

In the case of `Clc1ccc(-c2noc(CSC3=NCCN3)n2)cc1`, in assay [2], the inhibition – broadly, the change of the read-out against control, counted positive when it falls – was 61%.

With `Cc1oc(C(C)(C)C)cc1-c1cc(NS(=O)(=O)c2cccs2)[nH]n1`, the midpoint of inhibition in assay [1], the IC50, lay at 10 µM. Consider `Cc1nn(C)c(NCc2ccc(-c3cccs3)s2)c1[N+](=O)[O-]`, for which, in assay [1], the IC50 was found to be 20 µM. The same measure, in the same setting: for `Cc1noc(NC(=O)c2ccc(-c3cc(C(F)(F)F)nn3C)s2)c1[N+](=O)[O-]` the value was 5 µM; for `O=[N+]([O-])c1ccc(S(=O)(=O)c2ccc(Cl)cc2)[n+]([O-])c1`, 15 µM; for `O=[N+]([O-])c1cc(C(F)(F)F)ccc1S(=O)(=O)c1ccc(Cl)cc1`, 12 µM. In assay [1], `O=C(O)c1ccc(S(=O)(=O)c2cc(Br)c(O)c(Br)c2)cc1` registered an IC50 of 16 µM. Regarding `O=S(=O)(Cc1[nH]c(-c2ccc(Cl)s2)c[s+]1)c1cccs1`, the IC50 in assay [1] came out at 18 µM. Turning to `O=C(Cc1nccs1)c1nccs1`, in assay [1], the midpoint of inhibition, the IC50, lay at 40 µM. The compound `COc1ccc([N+](=O)[O-])c(S(=O)(=O)c2ccccc2)n1` yielded an inhibition in assay [2] of 58%.
